This note sets out measurements from patent US20190262404A1, “PHARMACEUTICAL COMPOSITION FOR PREVENTING OR TREATING IMMUNE DISEASE OR INFLAMMATORY DISEASE INCLUDING INFLAMMATORY STIMULATED MESENCHYMAL STEM CELL” (SCM LIFESCIENCE CO., LTD., priority 2016, published 2019).

Type in all cases: cell-based, human
The subject of test [1] is MLR-activated PBMCs. The test can be described thus: ELISA of proinflammatory cytokines, MSCs co-cultured with MLR-activated PBMCs, medium with nAChR antagonist or agonist. As to the method: (§1) The medium was harvested from nAChR antagonist or agonist-containing co-culture experiments. The secreted proinflammatory cytokines were quantified using the ELISA kits for TNF-α (BD Biosciences; cat. #555212) and IFN-γ (BD Biosciences; cat. #555141). The medium in which MLR- or PHA-activated PBMCs were cultured was used to carry out the assay for NGF (R&D Systems, Minneapolis, Minn., USA; cat. # DY256-05) and BDNF (R&D Systems; cat. # DBD00).
(§2) α-Bungarotoxin (EMD Millipore; cat. #203980), an nAChRα7 antagonist, was added to the medium at the concentration of […]. As cholinergic agonists, ACh chloride (Sigma; cat. # A6625) and carbachol (EMD Millipore; cat. #212385) were used at the concentrations of 1 nM and 10 pM, respectively, and the experiments were conducted.
(§3) In order to confirm ACh-nAChR pathway mechanism of MSCs under the inflammatory conditions, experiments were performed according to the methods described in Experimental Examples 1-2 and 1-10. The mixed lymphocyte reaction (MLR) condition was set such that PBMCs obtained from different donors were cultured together, and the phytohemagglutinin (PHA) treatment condition was set such that PBMCs were treated with PHA. According to inflammatory conditions, each PBMCs only group (P and Po) obtained from different donors; MSCs group co-cultured in mixed lymphocyte reaction (MLR) condition (MSC in MLR); mixed lymphocyte reaction condition group without MSCs (MLR); or MSCs group co-cultured in phytohemagglutinin (PHA) treatment condition (MSC in P^PHA) were placed. A cholinergic antagonist such as α-bungarotoxin (α-BTX, an antagonist of nAChRα7); a cholinergic agonist such as ACh chloride (ACh-Cl, an agonist of AChR); or a non-specific cholinergic agonist such as carbachol was added to the medium, and the activity of TNF-α and IFN-γ of MSCs by each inflammatory condition was confirmed. The results are illustrated in FIG. 14.
(In an ELISA, binding on a coated surface is turned into a signal by an enzyme label.)

For test [2], the system named is PHA-activated PBMCs. The test can be described thus: ELISA of proinflammatory cytokines, MSCs co-cultured with PHA-activated PBMCs, medium with nAChR antagonist or agonist. As to the method:
as §1, §2, §3

The subject of test [3] is MLR- or PHA-activated PBMCs. The test can be described thus: MSCs co-cultured with MLR- or PHA-activated PBMCs in medium supplemented with carbachol. The following applies: carbachol 10 pM added to MSCs culture medium under the inflammatory condition (FIGS. 15A to 15D).
Setting [4] is: MSCs + MLR-activated PBMCs, α-BTX 1 M or ACh-Cl 1 nM added to the medium.
[5] abbreviates: MSCs + PHA-activated PBMCs, α-BTX 1 M or ACh-Cl 1 nM added to the medium.

Where two headings read alike, the source gives them in different places.

Turning to `CC(=O)OCC[N+](C)(C)C.[Cl-]` [ACh-Cl, ACh chloride], in test [1] (setting [4]), the IFN-γ result was “significantly inhibited” and the TNF-α entry is “significantly inhibited”. In test [2] (setting [5]), the IFN-γ entry was “significantly inhibited” and the TNF-α result was “significantly inhibited”.
`C[N+](C)(C)CCOC(N)=O` [carbachol]: in test [3], the inflammatory cytokine release result is recorded as “inhibited” and the lymphocyte proliferation entry is on record as “inhibited the lymphocyte proliferation”.
For the compound α-Bungarotoxin [α-BTX], in test [1], the IFN-γ result is listed as “activated again” and the TNF-α entry is reported as “activated again”. For the same compound, in test [2], the IFN-γ entry is “activated again” and the TNF-α entry is reported as “activated again”.
